Tests used:
Assay in all cases: relative viability (nuclei count vs DMSO), 5 days (fraction); higher = more cells survive
201T = tested on: 201T
How it was run: (§1)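 Nuclei were stained with Hoechst during a one-step fixation (final 0.05% Triton X-100, 1% formaldehyde, 1 ug/ml Hoechst) carried out 5 days after dosing, then counted on 4× images. The cells, lung cancer lines in 1536-well plates, had been dosed by pin tool the day after seeding with one drug alone or a fixed anchor-drug dose plus five library-drug doses (not always all listed) in √10 steps. Relative viability is the nuclei count in treated wells divided by that in vehicle wells, and each value is the median of duplicate plates.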

BEN = tested on: BEN
How it was run: as §1

COR-L 105 = tested on: COR-L 105
How it was run: as §1

EKVX = tested on: EKVX
How it was run: as §1

EPLC-272H = tested on: EPLC-272H
How it was run: as §1

H3255 = tested on: H3255
How it was run: as §1

HCC-44 = tested on: HCC-44
How it was run: as §1

HCC-827 = tested on: HCC-827
How it was run: as §1

HOP-62 = tested on: HOP-62
How it was run: as §1

LCLC-97TM1 = tested on: LCLC-97TM1
How it was run: as §1

LOU-NH91 = tested on: LOU-NH91
How it was run: as §1

LU99A = tested on: LU99A
How it was run: as §1

NCI-H1395 = tested on: NCI-H1395
How it was run: as §1

NCI-H1437 = tested on: NCI-H1437
How it was run: as §1

NCI-H1666 = tested on: NCI-H1666
How it was run: as §1

NCI-H1975 = tested on: NCI-H1975
How it was run: as §1

NCI-H2085 = tested on: NCI-H2085
How it was run: as §1

NCI-H2087 = tested on: NCI-H2087
How it was run: as §1

NCI-H2342 = tested on: NCI-H2342
How it was run: as §1

NCI-H358 = tested on: NCI-H358
How it was run: as §1

NCI-H647 = tested on: NCI-H647
How it was run: as §1

PC-3 [JPC-3] = tested on: PC-3 [JPC-3]
How it was run: as §1

SW 1573 = tested on: SW 1573
How it was run: as §1

**Q.** What does the source list for `NC(=O)Nc1cc(-c2cccc(F)c2)sc1C(=O)N[C@H]1CCCNC1` [AZD7762] + N=C(N)NC(=N)NCCc1ccccc1 [Phenformin] (partner 250 µM)?
**A.** relative viability (201T; first compound 0.01 µM): 0.465; relative viability (201T; first compound 0.03162 µM): 0.406; relative viability (201T; first compound 0.1 µM): 0.453; relative viability (201T; first compound 0.3162 µM): 0.495; relative viability (201T; first compound 1 µM): 0.442; relative viability (BEN; first compound 0.01 µM): 0.316; relative viability (BEN; first compound 0.03162 µM): 0.271; relative viability (BEN; first compound 0.1 µM): 0.222; relative viability (BEN; first compound 0.3162 µM): 0.266; relative viability (BEN; first compound 1 µM): 0.245; relative viability (COR-L 105; first compound 0.01 µM): 0.5; relative viability (COR-L 105; first compound 0.03162 µM): 0.491; relative viability (COR-L 105; first compound 0.1 µM): 0.477; relative viability (COR-L 105; first compound 0.3162 µM): 0.429; relative viability (COR-L 105; first compound 1 µM): 0.254; relative viability (EKVX; first compound 0.01 µM): 0.194; relative viability (EKVX; first compound 0.03162 µM): 0.244; relative viability (EKVX; first compound 0.1 µM): 0.245; relative viability (EKVX; first compound 0.3162 µM): 0.229; relative viability (EKVX; first compound 1 µM): 0.206; relative viability (EPLC-272H; first compound 0.01 µM): 0.325; relative viability (EPLC-272H; first compound 0.03162 µM): 0.359; relative viability (EPLC-272H; first compound 0.1 µM): 0.278; relative viability (EPLC-272H; first compound 0.3162 µM): 0.261; relative viability (EPLC-272H; first compound 1 µM): 0.164; relative viability (H3255; first compound 0.01 µM): 0.337; relative viability (H3255; first compound 0.03162 µM): 0.357; relative viability (H3255; first compound 0.1 µM): 0.402; relative viability (H3255; first compound 0.3162 µM): 0.378; relative viability (H3255; first compound 1 µM): 0.374; relative viability (HCC-44; first compound 0.01 µM): 0.154; relative viability (HCC-44; first compound 0.03162 µM): 0.265; relative viability (HCC-44; first compound 0.1 µM): 0.16; relative viability (HCC-44; first compound 0.3162 µM): 0.185; relative viability (HCC-44; first compound 1 µM): 0.121; relative viability (HCC-827; first compound 0.01 µM): 0.406; relative viability (HCC-827; first compound 0.03162 µM): 0.422; relative viability (HCC-827; first compound 0.1 µM): 0.442; relative viability (HCC-827; first compound 0.3162 µM): 0.435; relative viability (HCC-827; first compound 1 µM): 0.249; relative viability (HOP-62; first compound 0.01 µM): 0.748; relative viability (HOP-62; first compound 0.03162 µM): 0.665; relative viability (HOP-62; first compound 0.1 µM): 0.791; relative viability (HOP-62; first compound 0.3162 µM): 0.616; relative viability (HOP-62; first compound 1 µM): 0.583; relative viability (LCLC-97TM1; first compound 0.01 µM): 0.429; relative viability (LCLC-97TM1; first compound 0.03162 µM): 0.434; relative viability (LCLC-97TM1; first compound 0.1 µM): 0.479; relative viability (LCLC-97TM1; first compound 0.3162 µM): 0.406; relative viability (LCLC-97TM1; first compound 1 µM): 0.433; relative viability (LOU-NH91; first compound 0.01 µM): 0.783; relative viability (LOU-NH91; first compound 0.03162 µM): 0.76; relative viability (LOU-NH91; first compound 0.1 µM): 0.717; relative viability (LOU-NH91; first compound 0.3162 µM): 0.772; relative viability (LOU-NH91; first compound 1 µM): 0.525; relative viability (LU99A; first compound 0.01 µM): 0.777; relative viability (LU99A; first compound 0.03162 µM): 0.934; relative viability (LU99A; first compound 0.1 µM): 0.868; relative viability (LU99A; first compound 0.3162 µM): 0.795; relative viability (LU99A; first compound 1 µM): 0.512; relative viability (NCI-H1395; first compound 0.01 µM): 0.471; relative viability (NCI-H1395; first compound 0.03162 µM): 0.47; relative viability (NCI-H1395; first compound 0.1 µM): 0.491; relative viability (NCI-H1395; first compound 0.3162 µM): 0.434; relative viability (NCI-H1395; first compound 1 µM): 0.381; relative viability (NCI-H1437; first compound 0.01 µM): 0.304; relative viability (NCI-H1437; first compound 0.03162 µM): 0.225; relative viability (NCI-H1437; first compound 0.1 µM): 0.328; relative viability (NCI-H1437; first compound 0.3162 µM): 0.343; relative viability (NCI-H1437; first compound 1 µM): 0.279; relative viability (NCI-H1666; first compound 0.01 µM): 0.549; relative viability (NCI-H1666; first compound 0.03162 µM): 0.596; relative viability (NCI-H1666; first compound 0.1 µM): 0.532; relative viability (NCI-H1666; first compound 0.3162 µM): 0.554; relative viability (NCI-H1666; first compound 1 µM): 0.467; relative viability (NCI-H1975; first compound 0.01 µM): 0.425; relative viability (NCI-H1975; first compound 0.03162 µM): 0.411; relative viability (NCI-H1975; first compound 0.1 µM): 0.417; relative viability (NCI-H1975; first compound 0.3162 µM): 0.386; relative viability (NCI-H1975; first compound 1 µM): 0.328; relative viability (NCI-H2085; first compound 0.01 µM): 0.647; relative viability (NCI-H2085; first compound 0.03162 µM): 0.806; relative viability (NCI-H2085; first compound 0.1 µM): 0.811; relative viability (NCI-H2085; first compound 0.3162 µM): 0.685; relative viability (NCI-H2085; first compound 1 µM): 0.496; relative viability (NCI-H2087; first compound 0.01 µM): 0.434; relative viability (NCI-H2087; first compound 0.03162 µM): 0.513; relative viability (NCI-H2087; first compound 0.1 µM): 0.566; relative viability (NCI-H2087; first compound 0.3162 µM): 0.553; relative viability (NCI-H2087; first compound 1 µM): 0.554; relative viability (NCI-H2342; first compound 0.01 µM): 0.597; relative viability (NCI-H2342; first compound 0.03162 µM): 0.605; relative viability (NCI-H2342; first compound 0.1 µM): 0.72; relative viability (NCI-H2342; first compound 0.3162 µM): 0.567; relative viability (NCI-H2342; first compound 1 µM): 0.56; relative viability (NCI-H358; first compound 0.01 µM): 0.305; relative viability (NCI-H358; first compound 0.03162 µM): 0.401; relative viability (NCI-H358; first compound 0.1 µM): 0.334; relative viability (NCI-H358; first compound 0.3162 µM): 0.242; relative viability (NCI-H358; first compound 1 µM): 0.185; relative viability (NCI-H647; first compound 0.01 µM): 0.495; relative viability (NCI-H647; first compound 0.03162 µM): 0.445; relative viability (NCI-H647; first compound 0.1 µM): 0.494; relative viability (NCI-H647; first compound 0.3162 µM): 0.315; relative viability (NCI-H647; first compound 1 µM): 0.106; relative viability (PC-3 [JPC-3]; first compound 0.01 µM): 0.485; relative viability (PC-3 [JPC-3]; first compound 0.03162 µM): 0.503; relative viability (PC-3 [JPC-3]; first compound 0.1 µM): 0.449; relative viability (PC-3 [JPC-3]; first compound 0.3162 µM): 0.484; relative viability (PC-3 [JPC-3]; first compound 1 µM): 0.405; relative viability (SW 1573; first compound 0.01 µM): 0.374; relative viability (SW 1573; first compound 0.03162 µM): 0.384; relative viability (SW 1573; first compound 0.1 µM): 0.346; relative viability (SW 1573; first compound 0.3162 µM): 0.297; relative viability (SW 1573; first compound 1 µM): 0.164

— the supplement of paper PMC10307832
